Reference: PubChem BioAssay AID1963869 (Molecular Pharmacology Branch, DTP, NCI, 2024)

System: KRAS patient-derived spheroids with HUVEC/MSC, viability
Assay: Anticancer human tumor 323965-272-R-J2-PDC patient-derived pancreatic carcinoma cell line growth inhibition [KRAS2]
Conditions: for IC50: curve of first compound; for viability, T/C: stronger effect = lower value
How it was run: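 KRAS-mutant tumor cells were grown as spheroids with HUVEC endothelial cells and human MSCs as stroma. Targeted agents were tested alone and with KRAS pathway inhibitors. Doses started at or near clinical Cmax, or 10 microM, descending half-log.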

[1] = second compound 0.1 µM, first compound 0.000316 µM
[2] = second compound 0.1 µM, first compound 0.001 µM
[3] = second compound 0.1 µM, first compound 0.00316 µM
[4] = second compound 0.1 µM, first compound 0.01 µM
[5] = second compound 0.1 µM, first compound 0.0316 µM
[6] = second compound 0.1 µM, first compound 0.1 µM
[7] = second compound 0.316 µM, first compound 0.000316 µM
[8] = second compound 0.316 µM, first compound 0.001 µM
[9] = second compound 0.316 µM, first compound 0.00316 µM
[10] = second compound 0.316 µM, first compound 0.01 µM
[11] = second compound 0.316 µM, first compound 0.0316 µM
[12] = second compound 0.316 µM, first compound 0.1 µM
[13] = second compound 1 µM, first compound 0.000316 µM
[14] = second compound 1 µM, first compound 0.001 µM
[15] = second compound 1 µM, first compound 0.00316 µM
[16] = second compound 1 µM, first compound 0.01 µM
[17] = second compound 1 µM, first compound 0.0316 µM
[18] = second compound 1 µM, first compound 0.1 µM
[19] = second compound 3.16 µM, first compound 0.000316 µM
[20] = second compound 3.16 µM, first compound 0.001 µM
[21] = second compound 3.16 µM, first compound 0.00316 µM
[22] = second compound 3.16 µM, first compound 0.01 µM
[23] = second compound 3.16 µM, first compound 0.0316 µM
[24] = second compound 3.16 µM, first compound 0.1 µM
[25] = second compound 10 µM, first compound 0.0316 µM
[26] = second compound 10 µM, first compound 0.1 µM
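Further: spheroids exposed to agents for 7 days.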
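Wherever viability, T/C is given: 100% = DMSO vehicle control viability.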

SMILES: Cn1ncnc1[C@H]1c2n[nH]c(=O)c3cc(F)cc(c23)N[C@@H]1c1ccc(F)cc1 + COc1cc2nc(C)nc(NC(C)c3cc(N)cc(C(F)(F)F)c3)c2cc1OC1CCOC1
- IC50 (second compound 0.1 µM): > 0.1 µM
- IC50 (second compound 0.316 µM): > 0.1 µM
- IC50 (second compound 1 µM): > 0.1 µM
- IC50 (second compound 3.16 µM): > 0.1 µM
- IC50 (second compound 10 µM): > 0.1 µM
- viability, T/C [1]: 85.1%
- viability, T/C [2]: 82.1%
- viability, T/C [3]: 86.3%
- viability, T/C [4]: 73.6%
- viability, T/C [5]: 76%
- viability, T/C [6]: 70%
- viability, T/C [7]: 79.1%
- viability, T/C [8]: 81.4%
- viability, T/C [9]: 71.9%
- viability, T/C [10]: 74.9%
- viability, T/C [11]: 65.2%
- viability, T/C [12]: 61.5%
- viability, T/C [13]: 73.3%
- viability, T/C [14]: 80.5%
- viability, T/C [15]: 69%
- viability, T/C [16]: 67.2%
- viability, T/C [17]: 63.8%
- viability, T/C [18]: 58.1%
- viability, T/C [19]: 79.8%
- viability, T/C [20]: 71.6%
- viability, T/C [21]: 69.6%
- viability, T/C [22]: 64.4%
- viability, T/C [23]: 65.2%
- viability, T/C [24]: 61%
- viability, T/C (second compound 10 µM, first compound 0.000316 µM): 75.1%
- viability, T/C (second compound 10 µM, first compound 0.001 µM): 79.8%
- viability, T/C (second compound 10 µM, first compound 0.00316 µM): 76.8%
- viability, T/C (second compound 10 µM, first compound 0.01 µM): 78.4%
- viability, T/C [25]: 67%
- viability, T/C [26]: 62.4%

SMILES: O=C(c1cc(Cc2n[nH]c(=O)c3ccccc23)ccc1F)N1CCN(C(=O)C2CC2)CC1 + COc1cc2nc(C)nc(NC(C)c3cc(N)cc(C(F)(F)F)c3)c2cc1OC1CCOC1
- IC50 (second compound 0.1 µM): > 10 µM
- IC50 (second compound 0.316 µM): > 10 µM
- IC50 (second compound 1 µM): > 10 µM
- IC50 (second compound 3.16 µM): > 10 µM
- IC50 (second compound 10 µM): > 10 µM
- viability, T/C [5]: 101%
- viability, T/C [6]: 107%
- viability, T/C (second compound 0.1 µM, first compound 0.316 µM): 94.1%
- viability, T/C (second compound 0.1 µM, first compound 1 µM): 98.8%
- viability, T/C (second compound 0.1 µM, first compound 3.16 µM): 88%
- viability, T/C (second compound 0.1 µM, first compound 10 µM): 59.1%
- viability, T/C [11]: 90.3%
- viability, T/C [12]: 81%
- viability, T/C (second compound 0.316 µM, first compound 0.316 µM): 83.5%
- viability, T/C (second compound 0.316 µM, first compound 1 µM): 84.9%
- viability, T/C (second compound 0.316 µM, first compound 3.16 µM): 78.9%
- viability, T/C (second compound 0.316 µM, first compound 10 µM): 57.7%
- viability, T/C [17]: 102%
- viability, T/C [18]: 103%
- viability, T/C (second compound 1 µM, first compound 0.316 µM): 95.5%
- viability, T/C (second compound 1 µM, first compound 1 µM): 99%
- viability, T/C (second compound 1 µM, first compound 3.16 µM): 94.6%
- viability, T/C (second compound 1 µM, first compound 10 µM): 50.2%
- viability, T/C [23]: 81.5%
- viability, T/C [24]: 82.2%
- viability, T/C (second compound 3.16 µM, first compound 0.316 µM): 76.1%
- viability, T/C (second compound 3.16 µM, first compound 1 µM): 83.2%
- viability, T/C (second compound 3.16 µM, first compound 3.16 µM): 76.9%
- viability, T/C (second compound 3.16 µM, first compound 10 µM): 52.5%
- viability, T/C [25]: 76.7%
- viability, T/C [26]: 76.3%
- viability, T/C (second compound 10 µM, first compound 0.316 µM): 78.8%
- viability, T/C (second compound 10 µM, first compound 1 µM): 75.8%
- viability, T/C (second compound 10 µM, first compound 3.16 µM): 75.9%
- viability, T/C (second compound 10 µM, first compound 10 µM): 51.2%

SMILES: CC(C)n1nc(-c2ccc3oc(N)nc3c2)c2c(N)ncnc21 + C=CC(=O)N1CCN(c2nc(OCC3CCCN3C)nc3c2CCN(c2cccc4cccc(C)c24)C3)CC1CC#N
- IC50 (second compound 0.0316 µM): 0.000596 µM
- IC50 (second compound 0.1 µM): 0.000419 µM
- IC50 (second compound 0.316 µM): < 0.000316 µM
- IC50 (second compound 1 µM): < 0.000316 µM
- IC50 (second compound 3.16 µM): < 0.000316 µM
- viability, T/C (second compound 0.0316 µM, first compound 0.000316 µM): 53%
- viability, T/C (second compound 0.0316 µM, first compound 0.001 µM): 49.6%
- viability, T/C (second compound 0.0316 µM, first compound 0.00316 µM): 30.5%
- viability, T/C (second compound 0.0316 µM, first compound 0.01 µM): 26%
- viability, T/C (second compound 0.0316 µM, first compound 0.0316 µM): 17.2%
- viability, T/C (second compound 0.0316 µM, first compound 0.1 µM): 14.5%
- viability, T/C [1]: 52%
- viability, T/C [2]: 43.7%
- viability, T/C [3]: 30.9%
- viability, T/C [4]: 21.1%
- viability, T/C [5]: 16.5%
- viability, T/C [6]: 13.5%
- viability, T/C [7]: 45.9%
- viability, T/C [8]: 37.3%
- viability, T/C [9]: 27.6%
- viability, T/C [10]: 18.7%
- viability, T/C [11]: 14.8%
- viability, T/C [12]: 12.1%
- viability, T/C [13]: 49.9%
- viability, T/C [14]: 37.7%
- viability, T/C [15]: 28.3%
- viability, T/C [16]: 17.6%
- viability, T/C [17]: 13.9%
- viability, T/C [18]: 11.1%
- viability, T/C [19]: 28.4%
- viability, T/C [20]: 9.51%
- viability, T/C [21]: 15.1%
- viability, T/C [22]: 2.78%
- viability, T/C [23]: 5.8%
- viability, T/C [24]: 4.1%
